# Data as given in US9695155B2, “Herbicidal substituted pyrimidinyloxy benzene compounds” (E. I. DU PONT DE NEMOURS AND COMPANY, priority 2013, dated 2017).
# What was measured:
# velvetleaf = assay: Test E preemergence; assay type: in vivo, Abutilon theophrasti; details: for Velvetleaf plant response rating: scale 0 to 100 (0 no effect, 100 complete control); for Plant response rating, Velvetleaf: scale 0 to 100, 0 no effect, 100 complete control
# Procedure, shortened: (§1)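 Compound in a non-phytotoxic solvent mixture with surfactant was applied preemergence to seeds in silt loam soil, or postemergence to plants 2 to 18 cm tall grown in peat-based potting medium. Plants were kept in a greenhouse for 14 to 21 days, then rated visually against untreated controls on a 0 (no effect) to 100 (complete control) scale.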
# yellow nutsedge = assay: Test E preemergence; assay type: in vivo, Cyperus esculentus; details: for Nutsedge, Yellow plant response rating: scale 0 to 100 (0 no effect, 100 complete control); for Plant response rating, Nutsedge, Yellow: scale 0 to 100, 0 no effect, 100 complete control
# Procedure, shortened: as §1
# palmer pigweed = assay: Test E preemergence; assay type: in vivo, Amaranthus palmeri; details: for Pigweed, Palmer plant response rating: scale 0 to 100 (0 no effect, 100 complete control); for Plant response rating, Pigweed, Palmer: scale 0 to 100, 0 no effect, 100 complete control
# Procedure, shortened: as §1
# corn = assay: Test E preemergence; assay type: in vivo, Zea mays; details: for Corn plant response rating: scale 0 to 100 (0 no effect, 100 complete control); for Plant response rating, Corn: scale 0 to 100, 0 no effect, 100 complete control
# Procedure, shortened: as §1
# arrowleaf sida = assay: Test E preemergence; assay type: in vivo, Sida rhombifolia; details: for Arrowleaf Sida plant response rating: scale 0 to 100 (0 no effect, 100 complete control); for Plant response rating, Arrowleaf Sida: scale 0 to 100, 0 no effect, 100 complete control
# Procedure, shortened: as §1
# Brazilian crabgrass = assay: Test E preemergence; assay type: in vivo, Digitaria horizontalis; details: for Crabgrass, Brazil plant response rating: scale 0 to 100 (0 no effect, 100 complete control); for Plant response rating, Crabgrass, Brazil: scale 0 to 100, 0 no effect, 100 complete control
# Procedure, shortened: as §1
# johnsongrass = assay: Test E preemergence; assay type: in vivo, Sorghum halepense; details: for Johnsongrass plant response rating: scale 0 to 100 (0 no effect, 100 complete control); for Plant response rating, Johnsongrass: scale 0 to 100, 0 no effect, 100 complete control
# Procedure, shortened: as §1
# waterhemp = assay: Test E preemergence; assay type: in vivo, Amaranthus rudis; details: for Waterhemp plant response rating: scale 0 to 100 (0 no effect, 100 complete control); for Plant response rating, Waterhemp: scale 0 to 100, 0 no effect, 100 complete control
# Procedure, shortened: as §1
# lambsquarters = assay: Test E preemergence; assay type: in vivo, Chenopodium album; details: for Lambsquarters plant response rating: scale 0 to 100 (0 no effect, 100 complete control); for Plant response rating, Lambsquarters: scale 0 to 100, 0 no effect, 100 complete control
# Procedure, shortened: as §1
# field bindweed = assay: Test E preemergence; assay type: in vivo, Convolvulus arvensis; details: for Field Bindweed plant response rating: scale 0 to 100 (0 no effect, 100 complete control); for Plant response rating, Field Bindweed: scale 0 to 100, 0 no effect, 100 complete control
# Procedure, shortened: as §1
# blackgrass = assay: Test A postemergence; assay type: in vivo, Alopecurus myosuroides; details: 0 to 100 scale where 0 is no effect and 100 is complete control
# Procedure, shortened: (§2)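 Pre- and postemergence greenhouse screen. Soil: loam + sand. Spray carrier: solvent mixture, non-phytotoxic, with surfactant. Post timing at 1–2 leaves, height 2–10 cm. Readout: visual injury on a 0–100 scale roughly 10 days after application, untreated plants as reference.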
# kochia = assay: Test A preemergence; assay type: in vivo, Kochia scoparia
# Procedure, shortened: as §2
# Italian ryegrass = assay: Test A preemergence; assay type: in vivo, Lolium multiflorum
# Procedure, shortened: as §2
# [1] = 125 g ai/ha, 0 to 100 scale where 0 is no effect and 100 is complete control
# [2] = 500 g ai/ha, 0 to 100 scale, 0 no effect, 100 complete control, approx. 10 days
compound,measurement,setting,value
N#Cc1cccc(Oc2ncc(F)cn2)c1-n1cc(Cl)cn1 [Compound 73],Velvetleaf plant response rating,velvetleaf; 16 g ai/ha,0
same,Velvetleaf plant response rating,velvetleaf; 31 g ai/ha,20
same,Velvetleaf plant response rating,velvetleaf; 62 g ai/ha,60
same,"Plant response rating, Velvetleaf",velvetleaf; 125 g ai/ha,70
same,"Plant response rating, Velvetleaf",velvetleaf; 250 g ai/ha,95
same,"Nutsedge, Yellow plant response rating",yellow nutsedge; 16 g ai/ha,0
same,"Nutsedge, Yellow plant response rating",yellow nutsedge; 31 g ai/ha,0
same,"Nutsedge, Yellow plant response rating",yellow nutsedge; 62 g ai/ha,50
same,"Plant response rating, Nutsedge, Yellow",yellow nutsedge; 125 g ai/ha,40
same,"Plant response rating, Nutsedge, Yellow",yellow nutsedge; 250 g ai/ha,30
same,"Pigweed, Palmer plant response rating",palmer pigweed; 16 g ai/ha,0
same,"Pigweed, Palmer plant response rating",palmer pigweed; 31 g ai/ha,75
same,"Pigweed, Palmer plant response rating",palmer pigweed; 62 g ai/ha,100
same,"Plant response rating, Pigweed, Palmer",palmer pigweed; 125 g ai/ha,100
same,"Plant response rating, Pigweed, Palmer",palmer pigweed; 250 g ai/ha,100
same,Corn plant response rating,corn; 16 g ai/ha,0
same,Corn plant response rating,corn; 31 g ai/ha,0
same,Corn plant response rating,corn; 62 g ai/ha,0
same,"Plant response rating, Corn",corn; 125 g ai/ha,0
same,"Plant response rating, Corn",corn; 250 g ai/ha,5
same,Arrowleaf Sida plant response rating,"arrowleaf sida; 16 g ai/ha, preemergence",5
same,Arrowleaf Sida plant response rating,"arrowleaf sida; 31 g ai/ha, preemergence",40
same,"Plant response rating, Arrowleaf Sida","arrowleaf sida; Preemergence, 62 g ai/ha",80
same,"Plant response rating, Arrowleaf Sida","arrowleaf sida; preemergence, 125 g ai/ha",100
same,"Plant response rating, Arrowleaf Sida","arrowleaf sida; preemergence, 250 g ai/ha",100
same,"Crabgrass, Brazil plant response rating",Brazilian crabgrass; 16 g ai/ha,25
same,"Crabgrass, Brazil plant response rating",Brazilian crabgrass; 31 g ai/ha,95
same,"Crabgrass, Brazil plant response rating",Brazilian crabgrass; 62 g ai/ha,100
same,"Plant response rating, Crabgrass, Brazil",Brazilian crabgrass; 125 g ai/ha,100
same,"Plant response rating, Crabgrass, Brazil",Brazilian crabgrass; 250 g ai/ha,100
same,Johnsongrass plant response rating,johnsongrass; 16 g ai/ha,0
same,Johnsongrass plant response rating,johnsongrass; 31 g ai/ha,20
same,Johnsongrass plant response rating,johnsongrass; 62 g ai/ha,20
same,"Plant response rating, Johnsongrass",johnsongrass; 125 g ai/ha,35
same,"Plant response rating, Johnsongrass",johnsongrass; 250 g ai/ha,85
same,Waterhemp plant response rating,waterhemp; 16 g ai/ha,65
same,Waterhemp plant response rating,waterhemp; 31 g ai/ha,100
same,Waterhemp plant response rating,waterhemp; 62 g ai/ha,100
same,"Plant response rating, Waterhemp",waterhemp; 125 g ai/ha,100
same,"Plant response rating, Waterhemp",waterhemp; 250 g ai/ha,100
same,Lambsquarters plant response rating,lambsquarters; 16 g ai/ha,10
same,Lambsquarters plant response rating,lambsquarters; 31 g ai/ha,65
same,Lambsquarters plant response rating,lambsquarters; 62 g ai/ha,98
same,"Plant response rating, Lambsquarters",lambsquarters; 125 g ai/ha,100
same,"Plant response rating, Lambsquarters",lambsquarters; 250 g ai/ha,100
same,Field Bindweed plant response rating,field bindweed; 16 g ai/ha,0
same,Field Bindweed plant response rating,field bindweed; 31 g ai/ha,15
same,Field Bindweed plant response rating,field bindweed; 62 g ai/ha,50
same,"Plant response rating, Field Bindweed",field bindweed; 125 g ai/ha,75
same,"Plant response rating, Field Bindweed",field bindweed; 250 g ai/ha,85
N#Cc1cccc(Oc2ncc(F)cn2)c1-n1cc(I)cn1 [Compound 86],Velvetleaf plant response rating,velvetleaf; 16 g ai/ha,0
same,Velvetleaf plant response rating,velvetleaf; 31 g ai/ha,0
same,Velvetleaf plant response rating,velvetleaf; 62 g ai/ha,50
same,"Plant response rating, Velvetleaf",velvetleaf; 125 g ai/ha,80
same,"Plant response rating, Blackgrass",blackgrass; 125 g ai/ha,90
same,"Plant response rating, Blackgrass",blackgrass; 500 g ai/ha,100
same,"Nutsedge, Yellow plant response rating",yellow nutsedge; 16 g ai/ha,0
same,"Nutsedge, Yellow plant response rating",yellow nutsedge; 31 g ai/ha,0
same,"Nutsedge, Yellow plant response rating",yellow nutsedge; 62 g ai/ha,0
same,"Plant response rating, Nutsedge, Yellow",yellow nutsedge; 125 g ai/ha,20
same,"Plant response rating, Kochia",kochia; [1],100
same,Kochia plant response rating,kochia; [2],100
same,"Pigweed, Palmer plant response rating",palmer pigweed; 31 g ai/ha,0
same,"Pigweed, Palmer plant response rating",palmer pigweed; 62 g ai/ha,100
same,"Plant response rating, Pigweed, Palmer",palmer pigweed; 125 g ai/ha,100
same,Corn plant response rating,corn; 16 g ai/ha,0
same,Corn plant response rating,corn; 31 g ai/ha,0
same,Corn plant response rating,corn; 62 g ai/ha,0
same,"Plant response rating, Corn",corn; 125 g ai/ha,5
same,"Plant response rating, Ryegrass, Italian",Italian ryegrass; [1],10
same,"Ryegrass, Italian plant response rating",Italian ryegrass; [2],60
same,Arrowleaf Sida plant response rating,"arrowleaf sida; 16 g ai/ha, preemergence",0
same,Arrowleaf Sida plant response rating,"arrowleaf sida; 31 g ai/ha, preemergence",5
same,"Plant response rating, Arrowleaf Sida","arrowleaf sida; Preemergence, 62 g ai/ha",60
same,"Plant response rating, Arrowleaf Sida","arrowleaf sida; preemergence, 125 g ai/ha",100
same,"Crabgrass, Brazil plant response rating",Brazilian crabgrass; 16 g ai/ha,0
same,"Crabgrass, Brazil plant response rating",Brazilian crabgrass; 31 g ai/ha,0
same,"Crabgrass, Brazil plant response rating",Brazilian crabgrass; 62 g ai/ha,75
same,"Plant response rating, Crabgrass, Brazil",Brazilian crabgrass; 125 g ai/ha,95
same,Johnsongrass plant response rating,johnsongrass; 16 g ai/ha,0
same,Johnsongrass plant response rating,johnsongrass; 31 g ai/ha,0
same,Johnsongrass plant response rating,johnsongrass; 62 g ai/ha,65
same,"Plant response rating, Johnsongrass",johnsongrass; 125 g ai/ha,65
same,Waterhemp plant response rating,waterhemp; 16 g ai/ha,0
same,Waterhemp plant response rating,waterhemp; 31 g ai/ha,70
same,Waterhemp plant response rating,waterhemp; 62 g ai/ha,100
same,"Plant response rating, Waterhemp",waterhemp; 125 g ai/ha,100
same,Lambsquarters plant response rating,lambsquarters; 16 g ai/ha,0
same,Lambsquarters plant response rating,lambsquarters; 31 g ai/ha,65
same,Lambsquarters plant response rating,lambsquarters; 62 g ai/ha,100
same,"Plant response rating, Lambsquarters",lambsquarters; 125 g ai/ha,100
same,Field Bindweed plant response rating,field bindweed; 16 g ai/ha,0
same,Field Bindweed plant response rating,field bindweed; 31 g ai/ha,10
same,Field Bindweed plant response rating,field bindweed; 62 g ai/ha,20
same,"Plant response rating, Field Bindweed",field bindweed; 125 g ai/ha,90
N#Cc1cnn(-c2c(C#N)cccc2Oc2ncc(F)cn2)c1 [Compound 111],Velvetleaf plant response rating,velvetleaf; 16 g ai/ha,5
same,Velvetleaf plant response rating,velvetleaf; 31 g ai/ha,10
same,Velvetleaf plant response rating,velvetleaf; 62 g ai/ha,60
same,"Plant response rating, Velvetleaf",velvetleaf; 125 g ai/ha,75
same,"Nutsedge, Yellow plant response rating",yellow nutsedge; 16 g ai/ha,0
same,"Nutsedge, Yellow plant response rating",yellow nutsedge; 31 g ai/ha,0
same,"Nutsedge, Yellow plant response rating",yellow nutsedge; 62 g ai/ha,0
same,"Plant response rating, Nutsedge, Yellow",yellow nutsedge; 125 g ai/ha,15
same,"Pigweed, Palmer plant response rating",palmer pigweed; 16 g ai/ha,10
same,"Pigweed, Palmer plant response rating",palmer pigweed; 31 g ai/ha,20
same,"Pigweed, Palmer plant response rating",palmer pigweed; 62 g ai/ha,100
same,"Plant response rating, Pigweed, Palmer",palmer pigweed; 125 g ai/ha,100
same,Corn plant response rating,corn; 16 g ai/ha,0
same,Corn plant response rating,corn; 31 g ai/ha,0
same,Corn plant response rating,corn; 62 g ai/ha,0
same,"Plant response rating, Corn",corn; 125 g ai/ha,15
same,Arrowleaf Sida plant response rating,"arrowleaf sida; 16 g ai/ha, preemergence",40
same,Arrowleaf Sida plant response rating,"arrowleaf sida; 31 g ai/ha, preemergence",50
same,"Plant response rating, Arrowleaf Sida","arrowleaf sida; Preemergence, 62 g ai/ha",70
same,"Plant response rating, Arrowleaf Sida","arrowleaf sida; preemergence, 125 g ai/ha",98
same,"Crabgrass, Brazil plant response rating",Brazilian crabgrass; 16 g ai/ha,0
same,"Crabgrass, Brazil plant response rating",Brazilian crabgrass; 31 g ai/ha,30
same,"Crabgrass, Brazil plant response rating",Brazilian crabgrass; 62 g ai/ha,75
same,"Plant response rating, Crabgrass, Brazil",Brazilian crabgrass; 125 g ai/ha,100
same,Johnsongrass plant response rating,johnsongrass; 16 g ai/ha,0
same,Johnsongrass plant response rating,johnsongrass; 31 g ai/ha,0
same,Johnsongrass plant response rating,johnsongrass; 62 g ai/ha,15
same,"Plant response rating, Johnsongrass",johnsongrass; 125 g ai/ha,70
same,Waterhemp plant response rating,waterhemp; 16 g ai/ha,0
same,Waterhemp plant response rating,waterhemp; 31 g ai/ha,65
same,Waterhemp plant response rating,waterhemp; 62 g ai/ha,80
same,"Plant response rating, Waterhemp",waterhemp; 125 g ai/ha,100
same,Lambsquarters plant response rating,lambsquarters; 16 g ai/ha,50
same,Lambsquarters plant response rating,lambsquarters; 31 g ai/ha,80
same,Lambsquarters plant response rating,lambsquarters; 62 g ai/ha,98
same,"Plant response rating, Lambsquarters",lambsquarters; 125 g ai/ha,100
same,Field Bindweed plant response rating,field bindweed; 16 g ai/ha,15
same,Field Bindweed plant response rating,field bindweed; 31 g ai/ha,15
same,Field Bindweed plant response rating,field bindweed; 62 g ai/ha,60
same,"Plant response rating, Field Bindweed",field bindweed; 125 g ai/ha,80
